From patent US11390617B2, “Methods of treating non-Hodgkin lymphoma using 2-(2,6-dioxopiperidin-3-yl)-4-((2-fluoro-4-((3-morpholinoazetidin-1-yl)methyl)benzyl)amino)isoindoline-1,3-dione” (Celgene Corporation, priority 2019, dated 2022)

How the values were obtained:
[1] = system: SU-DHL-4 cell line; test: Cell proliferation and viability assay using SU-DHL-4 cell line (Cell Titer-Glo); assay type: cell-based; details: Homo sapiens, SU-DHL-4, 120 hours
Description: The following exemplary assay uses a DLBCL cell line, for example, the SU-DHL-4 cell line (Deutsche Sammlung von Mikroorganismen und Zellkulturen GmbH [DSMZ]: catalogue number ACC-495) at 120 hours post-treatment. The seeding density for SU-DHL-4 can be optimized to ensure assay linearity in 1536-well plates.
Increasing concentrations (0.5 nM to […]) of Compounds 1, 2, and 3 were each spotted in a 20-point dilution fashion (unevenly spaced data points) via an acoustic dispenser (EDC ATS-100) into an empty 1536-well plate. The DMSO concentration was kept constant for a final assay concentration of 0.1% DMSO. Prior to testing, SU-DHL-4 cells were grown in RPMI-1640 (Roswell Park Memorial Institute-1640) medium with 10% FBS (fetal bovine serum: HyClone) and expanded in culture flasks to provide sufficient amounts of starting material. Cells were then diluted to 500 cells per well in a 5 μL volume, and added directly to the compound-spotted 1536-well plates. Cells were allowed to grow for 120 hours in 5% CO2 at 37° C. At the time when exposure of cells to compound began (t0), initial viable cell number was assessed via Cell Titer-Glo® Luminescent Cell Viability Assay at a 1 vol: 2 vol ratio according to manufacturer's instructions (Promega Corporation, Madison, Wis.) by quantifying the level of luminescence generated by adenosine-5′-triphosphate (ATP) present in viable cells. After 120 hours, cell viability of the treated cells was assessed via Cell Titer-Glo© and read for luminescence. All growth inhibition curves were processed and evaluated using Activity Base (IDBS, Alameda, Calif.). Cell viability IC50 values were calculated using a four parameter logistic model (sigmoidal dose-response model): y=(A+((B−A)/(1+((C/x)^D)))) wherein: A=YMin B=YMax C=EC50 D=Hill slope IC50=the concentration of the compound when Y=50% of DMSO control Y=cell viability measured as luminescence unit, and x=concentration of compound.

[2] = system: SUDHL-6 DLBCL xenograft tumors; test: SUDHL-6 (DLBCL) xenograft model; assay type: in vivo, female SCID mice; details: Compound 1 10 mg/kg oral, 5 days on 2 days off for 3 weeks, single agent
Description: Female 6- to 8-weeks-old CB17 SCID mice were obtained from Charles River Laboratories. Mice were housed in a barrier facility in micro-isolator cages at 10 animals per cage. Mice were fed with Harlan-Teklad LM-485 Mouse/Rat Sterilizable Diet and autoclaved water ad libitum and maintained on a 12 hours light-dark cycle. Animals were acclimatized to the animal housing facility for a period of 7 days before the beginning of the experiment. All animal studies were performed under protocols approved by Institutional Animal Care and Use Committees.
Suspensions of Compound 1 were pared in aqueous 0.5% Methyl Cellulose, 0.25% Tween 80 and 50 mM Citrate pH 3. […]
Tumor cells were injected subcutaneously in the flank region above the right hind legs of female CB17 SCID mice. […] Tumor volumes were determined before the initiation of treatment and were considered as the starting volumes. Tumors were measured twice a week for the duration of the study. The long and short axes of each tumor were measured using a digital caliper in millimeters. The tumor volumes were calculated using the formula: width^2×length/2. […]
Xenograft data are expressed as mean±SEM. […]
Xenograft study was conducted with female SCID mice bearing SUDHL-6 DLBCL xenograft tumors. […] Tumors were measured twice a week using calipers and tumor volumes were calculated using the formula of W^2×L/2. […]

[3] = system: RL follicular lymphoma xenograft tumors; test: RL (follicular lymphoma) xenograft model, monotherapy; assay type: in vivo, female SCID mice; details: 5 days on 2 days off for 3 weeks
Description: Anti-tumor activity of Compound 1 was evaluated as monotherapy (between 1 and 30 mg/kg, qd) in RL (follicular lymphoma) xenograft model.
Xenograft study was conducted with female SCID mice bearing RL follicular lymphoma xenograft tumors. Female SCID mice were inoculated subcutaneously with RL cells in the flank region above the right hind leg. Following inoculation of animals, the tumors were allowed to grow to approximately 200 mm^3 prior to randomization. On day 14 following tumor cell inoculation, the mice bearing RL tumors ranging between 150 and 250 mm^3 were pooled together and randomized into various treatment groups. Compound 1 was formulated in 0.5% Methyl Cellulose, 0.25% Tween 80 and 50 mM Citrate pH 3 in water. Compound 1 at 1, 3, 10 or 30 mg/kg was orally administered once daily with a 5 days on and 2 days off schedule for 3 weeks starting from day 14 after tumor cell inoculation. Tumors were measured twice a week using calipers and tumor volumes were calculated using the formula of W^2×L/2. Statistical analysis was performed using a one-way or 2-way analysis of variance (ANOVA). Synergy calculations were performed using fractional product method.

[4] = 3, 10 and 30 mg/kg oral once daily

O=C1CC[C@H](N2C(=O)c3cccc(NCc4ccc(CN5CC(N6CCOCC6)C5)cc4F)c3C2=O)C(=O)N1 [Compound 1, (S)-2-(2,6-dioxopiperidin-3-yl)-4-((2-fluoro-4-((3-morpholinoazetidin-1-yl)methyl)benzyl)amino)isoindoline-1,3-dione]
IC50 [1]: < 200 nM
tumor volume reduction [2]: 68%
inhibited RL follicular lymphoma tumor growth ([3]; 1 mg/kg oral once daily): −96.8%
tumor free animals [3, 4]: all the animals became tumor free
tumor growth [3, 4]: completely inhibited
